Measurements from patent publication US8637525B2, “Compounds for the reduction of beta-amyloid production” (Bristol-Myers Squibb Company, priority 2009, dated 2014).
Where a name gives a salt, the structure may show the parent alone. Read-outs that look alike come from different tables or passages of the source.

System: Aβ1-42 production
Assay: Cellular assay for inhibition of Aβ1-42 production (H4 APP751 SWE clone 8.20)
Format: cell-based
Details: H4 APP751 SWE clone 8.20 cells, 19 h incubation
Summary of the method: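 Secreted peptide was quantified with a two-antibody homogeneous format combining Wallac-labelled 565, which recognises the Aβ42 end, and APC-labelled 26D6 at 0.8 and 75 ng/well respectively. Antibodies were diluted in 40 mM Tris-HCl, pH 7.4, 0.2% BSA and left overnight at 4 °C after a 19 h compound incubation.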

[1] = 19 h, read-out: Activity Rating (Aβ42 cellular IC50), numeric value
[2] = 19 h, class symbols, read-out: Activity Rating (Aβ42 cellular IC50)
[3] = class symbols, read-out: Activity Rating (Aβ42 cellular IC50)

IC50 [2] [nM]	IC50 [3] [nM]	SMILES	also measured
		CNc1nc(Nc2ccc(-n3cnc(C)n3)c(OC)c2)nc2c1CCC2c1ccc(F)cc1 (racemic) [Example 44, 7-(4-fluorophenyl)-N2-(3-methoxy-4-(3-methyl-1H-1,2,4-triazol-1-yl)phenyl)-N4-methyl-6,7-dihydro-5H-cyclopenta[d]pyrimidine-2,4-diamine]	IC50 [1]: 13 nM
100 to 1000		CCNc1nc(Nc2ccc(-n3ncnc3C)c(F)c2)nc2c1COCC2c1ccc(C(F)(F)F)cc1 (centres unmarked) [Example 119B, N4-ethyl-N2-(3-fluoro-4-(5-methyl-1H-1,2,4-triazol-1-yl)phenyl)-8-(4-(trifluoromethyl)phenyl)-7,8-dihydro-5H-pyrano[4,3-d]pyrimidine-2,4-diamine]	
		CCNc1nc(Nc2ccc(-n3ncnc3C)c(F)c2)nc2c1CN(C(=O)C1CC1)CC2c1ccccc1 (centres unmarked) [Example 144B, cyclopropyl(4-(ethylamino)-2-(3-fluoro-4-(5-methyl-1H-1,2,4-triazol-1-yl)phenylamino)-8-phenyl-7,8-dihydropyrido[4,3-d]pyrimidin-6(5H)-yl)methanone]	IC50 [1]: 540 nM
		CCNc1nc(Nc2ccc(-n3cnc(Cl)c3)c(OC)c2)nc2c1CN(CC(F)(F)F)CC2c1ccccc1 (centres unmarked) [Example 196B]	IC50 [1]: 54 nM
10 to 100		COc1cc(Nc2nc3c(c(N4CC(F)(F)C4)n2)COCC3c2ccc(F)cc2)ccc1-n1cnc(Cl)c1 (racemic) [Example 63, N-(4-(4-chloro-1H-imidazol-1-yl)-3-methoxyphenyl)-4-(3,3-difluoroazetidin-1-yl)-8-(4-fluorophenyl)-7,8-dihydro-5H-pyrano[4,3-d]pyrimidin-2-amine]	
> 1000		CNc1nc(Nc2cccc(OC)c2)nc2c1CCC2c1ccccc1 (centres unmarked) [Example 217, N2-(3-methoxyphenyl)-N4-methyl-7-phenyl-6,7-dihydro-5H-cyclopenta[d]pyrimidine-2,4-diamine]	
10 to 100		CNc1nc(Nc2ccc(-n3cnc(Cl)c3)c(OC)c2)nc2c1C=CCC2(O)c1ccccc1 (centres unmarked) [Example 177, 2-(4-(4-chloro-1H-imidazol-1-yl)-3-methoxyphenylamino)-4-(methylamino)-8-phenyl-7,8-dihydroquinazolin-8-ol]	
10 to 100		CNc1nc(Nc2ccc(-n3cnc(C)n3)c(OC)c2)nc2c1COCC2c1ccc(Cl)cc1 (centres unmarked) [Example 71, 8-(4-chlorophenyl)-N^2-(3-methoxy-4-(3-methyl-1H-1,2,4-triazol-1-yl)phenyl)-N^4-methyl-7,8-dihydro-5H-pyrano[4,3-d]pyrimidine-2,4-diamine]	
10 to 100		CCNc1nc(Nc2ccc(-n3ncnc3C)c(F)c2)nc2c1CN(C(=O)C1CC1)CC2c1ccccc1 (centres unmarked) [Example 144, cyclopropyl(4-(ethylamino)-2-(3-fluoro-4-(5-methyl-1H-1,2,4-triazol-1-yl)phenylamino)-8-phenyl-7,8-dihydropyrido[4,3-d]pyrimidin-6(5H)-yl)methanone]	
		C#Cc1ccc(Nc2nc(NC)c3c(n2)C(c2ccc(F)cc2)CC3)cc1 (centres unmarked) [Example 259, N2-(4-ethynylphenyl)-7-(4-fluorophenyl)-N4-methyl-6,7-dihydro-5H-cyclopenta[d]pyrimidine-2,4-diamine]	IC50 [1]: 940 nM
	1.5 to 9.9	CNc1nc(Nc2ccc(-n3cnc(C)n3)c(F)c2)nc2c1CN(S(=O)(=O)C1CC1)CC2c1ccccc1 (centres unmarked) [Example 141A, 6-(cyclopropylsulfonyl)-N2-(3-fluoro-4-(3-methyl-1H-1,2,4-triazol-1-yl)phenyl)-N4-methyl-8-phenyl-5,6,7,8-tetrahydropyrido[4,3-d]pyrimidine-2,4-diamine]	
	1.5 to 9.9	COc1cc(Nc2nc3c(c(N(C)C)n2)CCC3c2ccc(F)c(F)c2)ccc1-n1cnc(Cl)c1 (single isomer, unassigned) [Example 95A, N^2-(4-(4-chloro-1H-imidazol-1-yl)-3-methoxyphenyl)-7-(3,4-difluorophenyl)-N^4,N^4-dimethyl-6,7-dihydro-5H-cyclopenta[d]pyrimidine-2,4-diamine]	
1.5 to 9.9		CCNc1nc(Nc2ccc(-n3cnc(Cl)c3)c(OC)c2)nc2c1CN(S(=O)(=O)C1CC1)CC2c1ccccc1 (centres unmarked) [Example 136, N2-(4-(4-chloro-1H-imidazol-1-yl)-3-methoxyphenyl)-6-(cyclopropylsulfonyl)-N4-ethyl-8-phenyl-5,6,7,8-tetrahydropyrido[4,3-d]pyrimidine-2,4-diamine]	
100 to 1000		CNc1nc(Nc2ccc(C(=O)N(C)C)cc2)nc2c1CCC2c1ccccc1 (centres unmarked) [Example 243, N,N-dimethyl-4-(4-(methylamino)-7-phenyl-6,7-dihydro-5H-cyclopenta[d]pyrimidin-2-ylamino)benzamide]	
		COc1cc(Nc2nc3c(c(N4C[C@@H]5C[C@H]4CO5)n2)CCC3c2ccc(F)cc2)ccc1-n1cnc(Cl)c1 (single isomer, unassigned) [Example 18A]	IC50 [1]: 8.8 nM
	10 to 100	CNc1nc(Nc2ccc(-n3cnc(C)n3)c(OC)c2)nc2c1COCC2c1ccc(F)cc1 (centres unmarked) [Example 54A, 8-(4-fluorophenyl)-N2-(3-methoxy-4-(3-methyl-1H-1,2,4-triazol-1-yl)phenyl)-N4-methyl-7,8-dihydro-5H-pyrano[4,3-d]pyrimidine-2,4-diamine]	
	10 to 100	CNc1nc(Nc2ccc(-n3cnc(C)n3)c(OC)c2)nc2c1CN(C)CC2c1ccc(F)cc1 (centres unmarked) [Example 198, 8-(4-fluorophenyl)-N2-(3-methoxy-4-(3-methyl-1H-1,2,4-triazol-1-yl)phenyl)-N4,6-dimethyl-5,6,7,8-tetrahydropyrido[4,3-d]pyrimidine-2,4-diamine]	
	100 to 1000	COc1cc(Nc2nc3c(c(N4C[C@@H](C)O[C@@H](C)C4)n2)CCC3c2ccc(F)cc2)ccc1-n1cnc(Cl)c1 (single isomer, unassigned) [Example 21B]	
	10 to 100	CNc1nc(Nc2ccc(-n3cnc(C)n3)c(OC)c2)nc2c1CCC2c1ccc(F)cc1F (single isomer, unassigned) [Example 193B, 7-(2,4-difluorophenyl)-N2-(3-methoxy-4-(3-methyl-1H-1,2,4-triazol-1-yl)phenyl)-N4-methyl-6,7-dihydro-5H-cyclopenta[d]pyrimidine-2,4-diamine]	
	10 to 100	CNc1nc(Nc2ccc(-n3cnc(Cl)c3)c(OC)c2)nc2c1CCC2c1ccccc1 (single isomer, unassigned) [Example 7B, N^2-(4-(4-chloro-1H-imidazol-1-yl)-3-methoxyphenyl)-N^4-methyl-7-phenyl-6,7-dihydro-5H-cyclopenta[d]pyrimidine-2,4-diamine]	
10 to 100		CCNc1nc(Nc2ccc(-n3cnc(C)n3)c(OC)c2)nc2c1COCC2c1ccc(F)cc1 (racemic) [Example 55, N4-ethyl-8-(4-fluorophenyl)-N2-(3-methoxy-4-(3-methyl-1H-1,2,4-triazol-1-yl)phenyl)-7,8-dihydro-5H-pyrano[4,3-d]pyrimidine-2,4-diamine]	
10 to 100		CNc1nc(Nc2ccc(-n3cnc(Cl)c3)c(OC)c2)nc2c1CN(S(C)(=O)=O)CC2c1ccccc1 (racemic) [Example 129, N2-(4-(4-chloro-1H-imidazol-1-yl)-3-methoxyphenyl)-N4-methyl-6-(methylsulfonyl)-8-phenyl-5,6,7,8-tetrahydropyrido[4,3-d]pyrimidine-2,4-diamine]	
10 to 100		Cc1ncnn1-c1ccc(Nc2nc3c(c(N(C)C)n2)COCC3c2ccc(Cl)cc2)cc1F (centres unmarked) [Example 67, 8-(4-chlorophenyl)-N^2-(3-fluoro-4-(5-methyl-1H-1,2,4-triazol-1-yl)phenyl)-N^4,N^4-dimethyl-7,8-dihydro-5H-pyrano[4,3-d]pyrimidine-2,4-diamine]	
	100 to 1000	COc1cc(Nc2nc(N[C@H](C)C3CC3)c3c(n2)C(c2ccc(C(F)(F)F)cc2)COC3)ccc1-n1cnc(Cl)c1 (stereo partly drawn) [Example 117B, N2-(4-(4-chloro-1H-imidazol-1-yl)-3-methoxyphenyl)-N4-((R)-1-cyclopropylethyl)-8-(4-(trifluoromethyl)phenyl)-7,8-dihydro-5H-pyrano[4,3-d]pyrimidine-2,4-diamine]	
		CNc1nc(Nc2ccc(F)cc2)nc2c1CCC2c1ccccc1 (centres unmarked) [Example 218, N2-(4-fluorophenyl)-N4-methyl-7-phenyl-6,7-dihydro-5H-cyclopenta[d]pyrimidine-2,4-diamine]	IC50 [1]: 3700 nM
	10 to 100	CNc1nc(Nc2ccc(-n3cnc(Cl)c3)c(OC)c2)nc2c1CCC2c1cc(F)c(F)c(F)c1 (single isomer, unassigned) [Example 103B, N^2-(4-(4-chloro-1H-imidazol-1-yl)-3-methoxyphenyl)-N^4-methyl-7-(3,4,5-trifluorophenyl)-6,7-dihydro-5H-cyclopenta[d]pyrimidine-2,4-diamine]	
10 to 100		COc1cc(Nc2nc3c(c(N4CCC(C(F)(F)F)C4)n2)CCC3c2ccc(F)cc2)ccc1-n1cnc(Cl)c1 (racemic) [Example 41, N-(4-(4-chloro-1H-imidazol-1-yl)-3-methoxyphenyl)-7-(4-fluorophenyl)-4-(3-(trifluoromethyl)pyrrolidin-1-yl)-6,7-dihydro-5H-cyclopenta[d]pyrimidin-2-amine]	
		COc1cc(Nc2nc(N[C@@H](C)C3CC3)c3c(n2)C(c2ccc(F)cc2)CC3)ccc1-n1cnc(Cl)c1 (mixture of isomers) [Example 50, N2-(4-(4-chloro-1H-imidazol-1-yl)-3-methoxyphenyl)-N4-((S)-1-cyclopropylethyl)-7-(4-fluorophenyl)-6,7-dihydro-5H-cyclopenta[d]pyrimidine-2,4-diamine, TFA]	IC50 (class symbols, TFA, read-out: Activity Rating (Aβ42 cellular IC50)): 1.5 to 9.9 nM
10 to 100		COc1cc(Nc2nc3c(c(N4CC(F)(F)C4)n2)COC3c2ccc(F)cc2)ccc1-n1cnc(Cl)c1 (centres unmarked) [Example 80A, N-(4-(4-chloro-1H-imidazol-1-yl)-3-methoxyphenyl)-4-(3,3-difluoroazetidin-1-yl)-7-(4-fluorophenyl)-5,7-dihydrofuro[3,4-d]pyrimidin-2-amine]	
